Assay type in all cases: cell-based, mouse
The subject of experiment [1] is BNL CL.2 cells. Kind of experiment: Apoptosis assay (FITC Annexin V/PI) after X-ray irradiation. The settings on record: 2 h pretreatment, X-ray 15 Gy, 96 hours, mean ± SEM. The source says: (§1) Four groups of BNL CL.2 cells (i.e., a normal control group referred to as Normal Control Group 1-A, an X-ray control group referred to as X-Ray Control Group 1-A, and two experimental groups referred to as Experimental Groups 1-A to 2-A), and six groups of NMuMG cells (i.e., a normal control group referred to as Normal Control Group 1-B, an X-ray control group referred to as X-Ray Control Group 1-B, two isorhamnetin groups referred to as Isorhamnetin Groups 1 to 2, and two experimental groups referred to as Experimental Groups 1-B to 2-B), were prepared based on the procedure set forth in “Source and cultivation of cell lines” of “Experimental materials”. BNL CL.2 cells in each group were cultivated using 5 mL of a corresponding medium shown in Table 1 and a 6-cm Petri dish in an amount of 2×10^5 cells per dish. Likewise, NMuMG cells in each group were cultivated using 5 mL of a corresponding medium shown in Table 1 and a 6-cm Petri dish in an amount of 2.5×10^5 cells per dish. The cultivation was conducted in an incubator (37° C., 5% CO2) for 24 hours.
(§2) Subsequently, medium was replaced with fresh medium. The obtained cultures in Experimental Groups 1-A, 1-B, 2-A, and 2-B were pretreated with the stock solution of isorhamnetin-3-O-β-D-glucoside, and the obtained cultures in Isorhamnetin Groups 1 to 2 were pretreated with the stock solution of isorhamnetin.
(§3) The culture in each group was then cultivated in an incubator (37° C., 5% CO2) for two hours. The resultant culture was used for the following experiments in sections B to D.
(§4) The cultures in X-Ray Control Group 1-A, X-Ray Control Group 1-B, Isorhamnetin Group 1, Isorhamnetin Group 2, Experimental Group 1-A, Experimental Group 1-B, Experimental Group 2-A, and Experimental Group 2-B, prepared according to section A of “Experimental procedures” in this example, were subjected to X-ray irradiation using a linear accelerator at a dose of 15 Gy. The cultures in Normal Control Groups 1-A and 1-B received no X-ray irradiation treatment. The culture of BNL CL.2 cells in each group was cultivated using a 6-cm Petri dish in an incubator (37° C., 5% CO2) for 96 hours, and the culture of NMuMG cells in each group was cultivated using a 6-cm Petri dish in an incubator (37° C., 5% CO2) for 72 hours. 1 mL of trypsin-EDTA was added to the culture in each group so as to detach the cells from the bottom of the Petri dish. Following this, 1 mL of a fresh medium (corresponding to the medium described in Table 1) was added to neutralize the activity of the trypsin, and the resultant cell suspension was transferred to a centrifuge tube with a pipette, followed by centrifugation at 1200 rpm for three minutes. The supernatant was removed, and the cell pellet thus obtained was washed once with cold PBS (pH 7.4), followed by centrifugation at 1200 rpm for 3 minutes. The supernatant was removed, and 100 μL of cold Annexin V binding buffer (BD Pharmingen™) was added to sufficiently re-suspend the cell pellet thereby obtaining a cell suspension having a cell concentration of 1.0×10^6 cells/mL. Afterward, 5 μL of FITC Annexin V (BD Pharmingen™) and 5 μL of propidium iodide (PI) staining solution (BD Pharmingen™) were added to the obtained cell suspension, followed by mixing evenly and standing in the dark at 4° C. for 30 minutes so as to obtain stained cells.
(§5) Subsequently, the stained cells were analyzed using BD Accuri™ C6 flow cytometry, in which cells that could be stained with FITC Annexin V but not with PI (i.e., FITC Annexin V positive and PI negative) represented cells that were induced with early apoptosis; cells stained with both FITC Annexin V and PI (i.e., FITC Annexin V positive and PI positive) represented cells that were induced with late apoptosis; and cells that could not be stained with FITC Annexin V and PI (i.e., FITC Annexin V negative and PI negative) represented viable cells. The number of stained cells was calculated using BD Accuri™ C6 software. […]

For experiment [2], the system named is NMuMG cells. Described as above. The note with it: 2 h pretreatment, X-ray 15 Gy, 72 hours, mean ± SEM.
Text: as §1, §2, §3, §4, §5

The test system of experiment [3] is BNL CL.2 cells. Kind of experiment: Mitochondrial membrane potential assay (JC-1) after X-ray irradiation. The settings on record: 5 μM, 2 h pretreatment, X-ray 15 Gy, 120 hours, mean ± SEM. From the text: (§6) Four groups of BNL CL.2 cells (i.e., a normal control group referred to as Normal Control Group 1-A, an X-ray control group referred to as X-Ray Control Group 1-A, and two experimental groups referred to as Experimental Groups 1-A to 2-A), and six groups of NMuMG cells (i.e., a normal control group referred to as Normal Control Group 1-B, an X-ray control group referred to as X-Ray Control Group 1-B, two isorhamnetin groups referred to as Isorhamnetin Groups 1 to 2, and two experimental groups referred to as Experimental Groups 1-B to 2-B), were prepared based on the procedure set forth in “Source and cultivation of cell lines” of “Experimental materials”. BNL CL.2 cells in each group were cultivated using 5 mL of a corresponding medium shown in Table 1 and a 6-cm Petri dish in an amount of 2×10^5 cells per dish. Likewise, NMuMG cells in each group were cultivated using 5 mL of a corresponding medium shown in Table 1 and a 6-cm Petri dish in an amount of 2.5×10^5 cells per dish. The cultivation was conducted in an incubator (37° C., 5% CO2) for 24 hours. […]
(§7) 1 mL of trypsin-EDTA was added so as to detach the cells from the bottom of the Petri dish. […] Mitochondrial membrane potential assay was conducted using BD Accuri™ C6 flow cytometry, and the percentage of mitochondrial membrane potential depolarization (%) was calculated using BD Accuri™ C6 software.

For experiment [4], the system named is NMuMG cells. Described as above. The settings on record: 15 μM, 2 h pretreatment, X-ray 10 Gy, 48 hours, mean ± SEM.
Text: as §6, §7

In the case of `COc1cc(-c2oc3cc(O)cc(O)c3c(=O)c2O[C@@H]2O[C@H](CO)[C@@H](O)[C@H](O)[C@H]2O)ccc1O` [isorhamnetin-3-O-β-D-glucoside], the Apoptosis percentage in the experiment on BNL CL.2 cells [1] (5 μM) is 30.28 ± 3.09%; in the experiment on BNL CL.2 cells [1] (30 μM) it was 29.35 ± 1.92 %; in the experiment on NMuMG cells [2] (15 μM), 17.77 ± 0.88 %; in the experiment with NMuMG cells [2] (30 μM), 16.5 ± 0.62 %. Also, the “Percentage of mitochondrial membrane potential depolarization” value with BNL CL.2 cells [3] is 16 ± 2.97 %; in the experiment on NMuMG cells [4], 30.05 ± 1.07 %.

Source of the values: US9821002B2, “Method for alleviating radiation injury with isorhamnetin-3-O-β-D-glucoside” (Sinotai Oncology Associate., Ltd., priority 2015, dated 2017).
